The values that follow come from US20250136722A1, “CYTOTOXICITY TARGETING CHIMERAS” (GLAXOSMITHKLINE INTELLECTUAL PROPERTY DEVELOPMENT LIMITED, priority 2021, published 2025).

Where “and” joins values, the source holds several entries; their conditions need not be identical. Equal values may be shown once. Where a name gives a salt, the structure may show the parent alone.

Experiment [1] concerns the target human alpha1 nicotinic acetylcholine (nACh) receptor (Homo sapiens, UniProt P02708+Q07001). The experiment can be described thus: Nicotinic acetylcholine receptor antagonism assay, IONFlux automated patch clamp (Example 203). Type of experiment: cell-based. Conditions: for IC50: nAChR antagonism, ACh stimulated, patch clamp; for Emax at 100 µM: maximum percentage antagonism at maximum concentration tested 100 μM. As for the experimental part:
Cells expressing human alpha1 nicotinic acetylcholine (nACh) receptor (nAChR) were washed and dissociated using Trypsin containing buffer. Cells were then washed and seeded at a density of 3-5 million cells/mL and allowed to grow for 3 days. Then, 60-80 μL of cells were added to plates and incubated with dose response of an ARM compound of Formula (I) with a top concentration of either 10 μM or 100 μM. The receptor was then stimulated via addition of acetylcholine (ACh) and activation of the receptor was monitored via the IONFlux automated patch clamp system. IonFlux Data Analyzer software was utilized to perform leak subtraction and measure (min) peak current amplitude.
Data processing: (1) Current values recorded for vehicle only applications in individual traps/patterns were subtracted from corresponding current amplitude values for control, test article and control+test article. (2) Control response was calculated as % of the average response of the 3rd out of total 3 ACh (10 mM) applications alone. In rare situations, if the 3rd ACh response was obscured due to technical artifacts, the 2nd and/or 1 st ACh (10 mM) application was considered as control. The peak current amplitude generated in the presence of each test article concentration was then used to calculate the % inhibition as compared to control response (10 mM ACh alone). These estimates were further corrected for vehicle response and run down corrected by normalizing with time matched control responses (10 mM ACh alone). The corrected percentages were then fit with a non-linear function in GraphPad Prism 6 (or later versions) to determine the […].
Exclusion criteria: (i) any n's with poor recording quality, (ii) control current amplitude <500 pA or (iii) significant outliers, as determined by the Grubbs' test.
ARMs compounds of Formula (I) of the invention were tested for antagonism of the nAChR in the above assay in […] experimental runs and the results are shown in Table 7 below. Antagonistic activity of the compounds of Formula (I) of the invention is reported as an IC50 value (half maximal inhibitory concentration) and the maximum percentage antagonism observed at the highest concentration of compound of Formula (I) tested, as indicated in Table 7. For compounds tested in more than one experimental run, the IC50 value is reported as an average.
(In general: The patch-clamp technique gives a direct electrical read-out from membranes.)

Experiment [2] has as its target T1, CHOK1 cells engineered to overexpress human CCR2 (Homo sapiens, UniProt P41597).
T1 construct: expressed in transfected cells; host or cells: CHOK1 cells
The experiment can be described thus: Antibody dependent cellular cytotoxicity (ADCC) reporter assay (Example 199). The format is cell-based. To be noted: with anti-cotinine antibody SEQ ID NO: 11/12; CHOK1-human CCR2 target cells, Jurkat FcγRIIIa NFAT-luciferase reporter cells; 12-18 hours; read-out: ADCC Reporter Assay pEC50 (converted). The method, boiled down:
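Potency is reported as pEC50 from a nonlinear fit, averaged over runs, using luciferase signal divided by that of compound-free wells. The readout comes from NFAT-luciferase Jurkat cells expressing FcγRIIIa, mixed for 12–18 h with human CCR2-overexpressing CHOK1 cells, 1 pM–10 μM ARM compound and 0.01–200 μg/mL Fc-enhanced anti-cotinine IgG1.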
(A reporter such as luciferase makes a cellular process visible.)

For orientation: IC50 means the concentration at which inhibition is half-maximal.

Sequence of human alpha1 nicotinic acetylcholine (nACh) receptor (P02708 21-457): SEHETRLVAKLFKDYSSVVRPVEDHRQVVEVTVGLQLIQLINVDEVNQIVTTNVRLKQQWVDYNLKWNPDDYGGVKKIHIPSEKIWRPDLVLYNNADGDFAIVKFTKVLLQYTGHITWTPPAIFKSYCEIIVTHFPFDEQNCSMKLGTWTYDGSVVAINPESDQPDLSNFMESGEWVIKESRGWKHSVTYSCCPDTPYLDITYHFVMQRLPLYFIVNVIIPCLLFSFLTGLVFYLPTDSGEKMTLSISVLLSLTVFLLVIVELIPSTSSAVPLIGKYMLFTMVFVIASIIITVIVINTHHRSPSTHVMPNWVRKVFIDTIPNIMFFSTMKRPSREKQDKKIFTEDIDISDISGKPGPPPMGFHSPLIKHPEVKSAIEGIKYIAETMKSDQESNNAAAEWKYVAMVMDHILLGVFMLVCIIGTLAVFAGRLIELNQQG
Sequence of human alpha1 nicotinic acetylcholine (nACh) receptor (P11230 24-501 partner): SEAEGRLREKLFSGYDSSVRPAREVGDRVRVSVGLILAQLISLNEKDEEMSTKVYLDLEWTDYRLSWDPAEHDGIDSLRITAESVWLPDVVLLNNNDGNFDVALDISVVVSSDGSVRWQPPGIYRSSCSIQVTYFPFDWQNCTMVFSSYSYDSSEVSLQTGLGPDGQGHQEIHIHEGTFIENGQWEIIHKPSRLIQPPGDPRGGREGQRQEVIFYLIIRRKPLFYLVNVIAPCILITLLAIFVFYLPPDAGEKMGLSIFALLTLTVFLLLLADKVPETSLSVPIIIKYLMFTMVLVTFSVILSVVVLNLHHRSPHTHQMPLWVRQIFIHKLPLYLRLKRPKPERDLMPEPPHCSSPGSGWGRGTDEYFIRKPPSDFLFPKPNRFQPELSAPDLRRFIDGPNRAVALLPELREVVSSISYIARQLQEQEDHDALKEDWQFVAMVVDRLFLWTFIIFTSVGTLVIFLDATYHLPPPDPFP
Sequence of human alpha1 nicotinic acetylcholine (nACh) receptor (Q07001 22-517): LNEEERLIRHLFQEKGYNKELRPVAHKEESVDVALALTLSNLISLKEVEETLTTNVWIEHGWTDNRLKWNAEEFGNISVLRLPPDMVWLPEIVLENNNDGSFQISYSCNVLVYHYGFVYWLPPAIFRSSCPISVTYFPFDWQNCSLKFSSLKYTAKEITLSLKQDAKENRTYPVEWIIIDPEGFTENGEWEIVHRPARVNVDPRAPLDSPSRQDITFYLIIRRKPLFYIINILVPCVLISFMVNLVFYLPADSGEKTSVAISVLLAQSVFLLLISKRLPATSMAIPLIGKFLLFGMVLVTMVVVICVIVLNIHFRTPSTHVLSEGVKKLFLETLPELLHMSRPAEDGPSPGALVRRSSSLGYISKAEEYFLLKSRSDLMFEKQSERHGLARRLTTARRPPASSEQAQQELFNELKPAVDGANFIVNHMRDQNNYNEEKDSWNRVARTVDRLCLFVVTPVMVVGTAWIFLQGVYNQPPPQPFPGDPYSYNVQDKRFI

For `CC(C)N(C)[C@@H]1CC[C@H](N2CC[C@H](Nc3ncnc4ccc(C(F)(F)F)cc34)C2=O)[C@H](NC(=O)c2ccc(C3CCN(CCOCCOCCNC(=O)[C@H]4CC(=O)N(C)[C@@H]4c4cccnc4)CC3)cn2)C1` [Example 94], the Emax at 10 µM in experiment [1] (maximum percentage antagonism at maximum concentration tested 10 μM, read-out: Maximum Response (%)) came to 67.1%. Further, in experiment [1], the half-inhibitory concentration (IC50) was found to be 4660 nM. Moreover, the EC50 in experiment [2] is 10 nM.

Turning to `CC(C)N(C)[C@@H]1CC[C@H](N2CC[C@H](Nc3ncnc4ccc(C(F)(F)F)cc34)C2=O)[C@H](NC(=O)[C@H]2C[C@@H](NC(=O)CCCO[C@H]3CC[C@H](OCCNC(=O)[C@H]4CC(=O)N(C)[C@@H]4c4cccnc4)CC3)C2)C1` [Example 9], the Emax at 100 µM in experiment [1] (read-out: Maximum Response (%)) worked out at 53.9%. In addition, in experiment [1], the half-maximal inhibitory concentration (IC50) was 82000 nM. In experiment [2], the EC50 was 25.1 nM.

On to `CC(C)N(C)[C@@H]1CC[C@H](N2CC[C@H](Nc3ncnc4ccc(C(F)(F)F)cc34)C2=O)[C@H](NC(=O)CCOCCOCCO[C@H]2CC[C@H](OCCNC(=O)[C@H]3CC(=O)N(C)[C@@H]3c3cccnc3)CC2)C1` [Example 192, (2S,3S)-N-(2-(((1R,4S)-4-(2-(2-(3-(((1R,2S,5R)-5-(Isopropyl(methyl)amino)-2-((S)-2-oxo-3-((6-(trifluoromethyl)quinazolin-4-yl)amino)pyrrolidin-1-yl)cyclohexyl)amino)-3-oxopropoxy)ethoxy)ethoxy)cyclohexyl)oxy)ethyl)-1-methyl-5-oxo-2-(pyridin-3-yl)pyrrolidine-3-carboxamide], for which, in experiment [1] (read-out: Maximum Response (%)), the Emax at 100 µM stood at 53%. The same molecule showed an IC50 in experiment [1] of 74300 nM.

For `CC(C)N(C)[C@@H]1CC[C@H](N2CC[C@H](Nc3ncnc4ccc(C(F)(F)F)cc34)C2=O)[C@H](NC(=O)[C@H]2CC[C@@H](N3CCN(CCCCCCCCNC(=O)[C@H]4CC(=O)N(C)[C@@H]4c4cccnc4)CC3)CC2)C1` [Example 145], the EC50 in experiment [2] is 1.58 nM.

For the molecule `CC(C)N(C)[C@@H]1CC[C@H](N2CC[C@H](Nc3ncnc4ccc(C(F)(F)F)cc34)C2=O)[C@H](NC(=O)CCCOC[C@H]2CC[C@H](COCCNC(=O)[C@H]3CC(=O)N(C)[C@@H]3c3cccnc3)CC2)C1` [Example 58], in experiment [2], the EC50 was 50.1 nM.

Consider `CC(C)N(C)[C@@H]1CC[C@H](N2CC[C@H](Nc3ncnc4ccc(C(F)(F)F)cc34)C2=O)[C@H](NC(=O)c2ccc([C@H]3CC[C@@H](C(=O)NCCOCCOCCNC(=O)[C@H]4CC(=O)N(C)[C@@H]4c4cccnc4)CC3)cc2)C1` [Example 133], for which the EC50 in experiment [2] is 5.01 nM.

`CC(C)N(C)[C@@H]1CC[C@H](N2CC[C@H](Nc3ncnc4ccc(C(F)(F)F)cc34)C2=O)[C@H](NC(=O)CCOCCOCCNC(=O)[C@@H]2CCCN2CCOCCNC(=O)[C@H]2CC(=O)N(C)[C@@H]2c2cccnc2)C1` [Example 118, (S)-N-(2-(2-(3-(((1R,2S,5R)-5-(Isopropyl(methyl)amino)-2-((S)-2-oxo-3-((6-(trifluoromethyl)quinazolin-4-yl)amino)pyrrolidin-1-yl)cyclohexyl)amino)-3-oxopropoxy)ethoxy)ethyl)-1-(2-(2-((2S,3S)-1-methyl-5-oxo-2-(pyridin-3-yl)pyrrolidine-3-carboxamido)ethoxy)ethyl)pyrrolidine-2-carboxamide]: the EC50 in experiment [2] is 3.98 nM.

Consider `CC(C)N(C)[C@@H]1CC[C@H](N2CC[C@H](Nc3ncnc4ccc(C(F)(F)F)cc34)C2=O)[C@H](NC(=O)CCCN2CCC3(CCC(C(=O)NCCNC(=O)[C@H]4CC(=O)N(C)[C@@H]4c4cccnc4)CC3)CC2)C1` [Example 183, 3-(4-(((1R,2S,5R)-5-(Isopropyl(methyl)amino)-2-((S)-2-oxo-3-((6-(trifluoromethyl)quinazolin-4-yl)amino)pyrrolidin-1-yl)cyclohexyl)amino)-4-oxobutyl)-N-(2-((2S,3S)-1-methyl-5-oxo-2-(pyridin-3-yl)pyrrolidine-3-carboxamido)ethyl)-3-azaspiro[5.5]undecane-9-carboxamide, 3 Formic acid salt], for which the EC50 in experiment [2] was 0.501 nM.

For `CC(C)N(C)[C@@H]1CC[C@H](N2CC[C@H](Nc3ncnc4ccc(C(F)(F)F)cc34)C2=O)[C@H](NC(=O)c2ccc(NCCOCCOCCOCCOCCNC(=O)[C@H]3CC(=O)N(C)[C@@H]3c3cccnc3)nn2)C1` [Example 125], in experiment [2], the EC50 is 3.16 nM.

For `CC(C)N(C)[C@@H]1CC[C@H](N2CC[C@H](Nc3ncnc4ccc(C(F)(F)F)cc34)C2=O)[C@H](NC(=O)[C@H]2CC[C@@H](NC(=O)CCOCCCOCCCNC(=O)[C@H]3CC(=O)N(C)[C@@H]3c3cccnc3)CC2)C1` [Example 197, (2S,3S)-N-(3-(3-(3-(((1S,4s)-4-(((1R,2S,5R)-5-(Isopropyl(methyl)amino)-2-((S)-2-oxo-3-((6-(trifluoromethyl)quinazolin-4-yl)amino)pyrrolidin-1-yl)cyclohexyl)carbamoyl)cyclohexyl)amino)-3-oxopropoxy)propoxy)propyl)-1-methyl-5-oxo-2-(pyridin-3-yl)pyrrolidine-3-carboxamide], in experiment [2], the EC50 is 0.251 nM.

For `CC(C)N(C)[C@@H]1CC[C@H](N2CC[C@H](Nc3ncnc4ccc(C(F)(F)F)cc34)C2=O)[C@H](NC(=O)CCCOCC23CCC(COCCNC(=O)[C@H]4CC(=O)N(C)[C@@H]4c4cccnc4)(CC2)CC3)C1` [Example 59], the EC50 in experiment [2] is 251 nM.

Turning to `CC(C)N(CCOCCOCCC(=O)N[C@H]1CC[C@@H](C(=O)N[C@@H]2C[C@H](N(C)C(C)C)CC[C@@H]2N2CC[C@H](Nc3ncnc4ccc(C(F)(F)F)cc34)C2=O)CC1)C(=O)CCCNC(=O)[C@H]1CC(=O)N(C)[C@@H]1c1cccnc1` [Example 177], in experiment [2], the EC50 was 0.501 nM and 0.316 nM.

On to `CC(C)N(C)[C@@H]1CC[C@H](N2CC[C@H](Nc3ncnc4ccc(C(F)(F)F)cc34)C2=O)[C@H](NC(=O)C2CC=C(c3ccc(OCCCCCCNC(=O)[C@H]4CC(=O)N(C)[C@@H]4c4cccnc4)cc3)CC2)C1` (stereo partly drawn) [Example 158, (2S,3S)-N-(6-((4′-(((1R,2S,5R)-5-(Isopropyl(methyl)amino)-2-((S)-2-oxo-3-((6-(trifluoromethyl)quinazolin-4-yl)amino)pyrrolidin-1-yl)cyclohexyl)carbamoyl)-2′,3′,4′,5′-tetrahydro-[1,1′-biphenyl]-4-yl)oxy)hexyl)-1-methyl-5-oxo-2-(pyridin-3-yl)pyrrolidine-3-carboxamide], for which, in experiment [2], the EC50 was 2.51 nM.

On to `CC(C)N(C)[C@@H]1CC[C@H](N2CC[C@H](Nc3ncnc4ccc(C(F)(F)F)cc34)C2=O)[C@H](NC(=O)C2CCN(CCOCCOCCOCCOCCNC(=O)[C@H]3CC(=O)N(C)[C@@H]3c3cccnc3)CC2)C1` [Example 147], for which, in experiment [2], the EC50 was 1.26 nM.

For the molecule `CN1C(=O)C[C@H](C(=O)NCCOCC(=O)NCCOCC(=O)N[C@H]2CC[C@@H](C(=O)N[C@@H]3C[C@H](NC(C)(C)C)CC[C@@H]3N3CC[C@H](Nc4ncnc5ccc(C(F)(F)F)cc45)C3=O)CC2)[C@H]1c1cccnc1` [Example 100], in experiment [2], the EC50 is 1.2 nM.

As for `CC(C)N(C)[C@@H]1CC[C@H](N2CC[C@H](Nc3ncnc4ccc(C(F)(F)F)cc34)C2=O)[C@H](NC(=O)[C@H]2CC[C@@H](NC(=O)C3CCC4(CC3)CCN(CCNC(=O)[C@H]3CC(=O)N(C)[C@@H]3c3cccnc3)CC4)CC2)C1` [Example 170, N-((1S,4s)-4-(((1R,2S,5R)-5-(Isopropyl(methyl)amino)-2-((S)-2-oxo-3-((6-(trifluoromethyl)quinazolin-4-yl)amino)pyrrolidin-1-yl)cyclohexyl)carbamoyl)cyclohexyl)-3-(2-((2S,3S)-1-methyl-5-oxo-2-(pyridin-3-yl)pyrrolidine-3-carboxamido)ethyl)-3-azaspiro[5.5]undecane-9-carboxamide], the EC50 in experiment [2] was 1 nM.

As for `CC(C)N(C)[C@@H]1CC[C@H](N2CC[C@H](Nc3ncnc4ccc(C(F)(F)F)cc34)C2=O)[C@H](NC(=O)[C@H]2CC[C@@H](NC(=O)CNC(=O)COCCOCCNC(=O)[C@H]3CC(=O)N(C)[C@@H]3c3cccnc3)CC2)C1` [Example 81], the EC50 in experiment [2] is 0.522 nM.

Turning to `CC(C)N(C)[C@@H]1CC[C@H](N2CC[C@H](Nc3ncnc4ccc(C(F)(F)F)cc34)C2=O)[C@H](NC(=O)[C@H]2C[C@H](NC(=O)CCO[C@H]3CC[C@H](OCCNC(=O)[C@H]4CC(=O)N(C)[C@@H]4c4cccnc4)CC3)C2)C1` [Example 117], the EC50 in experiment [2] is 0.316 nM.
